Among the test systems are CAKI-1 renal; COLO 205 colon; HCT-116 colon; K-562 leukemia; KM12 colon; M14 melanoma; MOLT-4 leukemia; SF-268 CNS; SF-295 CNS; UACC-62 melanoma.
Holding throughout (assay): inhibition of tumour cell growth, NCI panel, 48 h

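48-hour exposure; five concentrations; linearly interpolated endpoints. GI50 marks 50% less growth. TGI: total growth inhibition.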

Consider `COc1ccc(N(CC(=O)NCCC[Te]c2ccccc2)C(=O)c2ccccc2)cc1`, for which the GI50 is 2.98 µM in the experiment on CAKI-1 renal; 2.58 µM in the experiment on COLO 205 colon; 2.55 µM in the experiment on HCT-116 colon; 5.17 µM in the experiment with K-562 leukemia; 3.13 µM in the experiment on KM12 colon; 4.21 µM with M14 melanoma. The GI50 was 3.51 µM in the experiment with MOLT-4 leukemia, 3.19 µM in the experiment with SF-268 CNS, 1.68 µM with SF-295 CNS and 2.53 µM with UACC-62 melanoma. Also, the TGI in the experiment on CAKI-1 renal was 14.9 µM; with COLO 205 colon, 6.03 µM; with HCT-116 colon, 10.2 µM; with K-562 leukemia it was greater than 100 µM; in the experiment with KM12 colon it was 11.9 µM; in the experiment with M14 melanoma, 15.4 µM. Also, the TGI in the experiment with MOLT-4 leukemia was 17.5 µM; in the experiment on SF-268 CNS, 10.8 µM; in the experiment with SF-295 CNS, 8.17 µM; in the experiment with UACC-62 melanoma it was 7.5 µM.
Turning to `Oc1ccc2cc(Br)ccc2c1-c1c(O)ccc2cc(Br)ccc12`, the GI50 in the experiment with CAKI-1 renal is 2.27 µM; in the experiment on COLO 205 colon, 1.77 µM; in the experiment on HCT-116 colon, 1.95 µM; with K-562 leukemia, 2.88 µM; in the experiment with KM12 colon, 2.93 µM; with M14 melanoma it was 3.91 µM. Also, the GI50 is 2.83 µM in the experiment on MOLT-4 leukemia, 3.27 µM with SF-268 CNS, 2.46 µM with SF-295 CNS and 2.2 µM in the experiment on UACC-62 melanoma. The TGI in the experiment on CAKI-1 renal came out at 8.77 µM; in the experiment with COLO 205 colon it was 3.38 µM; in the experiment with HCT-116 colon, 4.01 µM; in the experiment with K-562 leukemia, 11.1 µM; in the experiment on KM12 colon, 10.4 µM; in the experiment with M14 melanoma, 14 µM. Further, the TGI in the experiment on MOLT-4 leukemia worked out at 11 µM; with SF-268 CNS, 13.2 µM; in the experiment on SF-295 CNS, 6.79 µM; with UACC-62 melanoma, 8.5 µM.

These data come from PubChem BioAssay (NCI).
